# Results reported in ChEMBL document CHEMBL3608294, “Epoxylathyrol Derivatives: Modulation of ABCB1-Mediated Multidrug Resistance in Human Colon Adenocarcinoma and Mouse T-Lymphoma Cells” (J Nat Prod, 2015).
# pIC50: −log10 of the molar value.
# How the values were obtained:
# [1] = tested on: L5178Y; test: Cytotoxicity against chemosensitive wild type parental mouse L5178Y cells incubated for 24 hrs by MTT assay; type: functional, cell-based
# [2] = target: T1, ATP-dependent translocase ABCB1 (Homo sapiens, UniProt P08183); test: Inhibition of human ABCB1 expressed in mouse L5178Y cells assessed as fluorescence activity ratio at 0.2 uM incubated for 10 mins by flow cytometry based rhodamine-123 accumulation assay (reference value: 0.78); type: cell-based
# T1 sequence (P08183 whole entry): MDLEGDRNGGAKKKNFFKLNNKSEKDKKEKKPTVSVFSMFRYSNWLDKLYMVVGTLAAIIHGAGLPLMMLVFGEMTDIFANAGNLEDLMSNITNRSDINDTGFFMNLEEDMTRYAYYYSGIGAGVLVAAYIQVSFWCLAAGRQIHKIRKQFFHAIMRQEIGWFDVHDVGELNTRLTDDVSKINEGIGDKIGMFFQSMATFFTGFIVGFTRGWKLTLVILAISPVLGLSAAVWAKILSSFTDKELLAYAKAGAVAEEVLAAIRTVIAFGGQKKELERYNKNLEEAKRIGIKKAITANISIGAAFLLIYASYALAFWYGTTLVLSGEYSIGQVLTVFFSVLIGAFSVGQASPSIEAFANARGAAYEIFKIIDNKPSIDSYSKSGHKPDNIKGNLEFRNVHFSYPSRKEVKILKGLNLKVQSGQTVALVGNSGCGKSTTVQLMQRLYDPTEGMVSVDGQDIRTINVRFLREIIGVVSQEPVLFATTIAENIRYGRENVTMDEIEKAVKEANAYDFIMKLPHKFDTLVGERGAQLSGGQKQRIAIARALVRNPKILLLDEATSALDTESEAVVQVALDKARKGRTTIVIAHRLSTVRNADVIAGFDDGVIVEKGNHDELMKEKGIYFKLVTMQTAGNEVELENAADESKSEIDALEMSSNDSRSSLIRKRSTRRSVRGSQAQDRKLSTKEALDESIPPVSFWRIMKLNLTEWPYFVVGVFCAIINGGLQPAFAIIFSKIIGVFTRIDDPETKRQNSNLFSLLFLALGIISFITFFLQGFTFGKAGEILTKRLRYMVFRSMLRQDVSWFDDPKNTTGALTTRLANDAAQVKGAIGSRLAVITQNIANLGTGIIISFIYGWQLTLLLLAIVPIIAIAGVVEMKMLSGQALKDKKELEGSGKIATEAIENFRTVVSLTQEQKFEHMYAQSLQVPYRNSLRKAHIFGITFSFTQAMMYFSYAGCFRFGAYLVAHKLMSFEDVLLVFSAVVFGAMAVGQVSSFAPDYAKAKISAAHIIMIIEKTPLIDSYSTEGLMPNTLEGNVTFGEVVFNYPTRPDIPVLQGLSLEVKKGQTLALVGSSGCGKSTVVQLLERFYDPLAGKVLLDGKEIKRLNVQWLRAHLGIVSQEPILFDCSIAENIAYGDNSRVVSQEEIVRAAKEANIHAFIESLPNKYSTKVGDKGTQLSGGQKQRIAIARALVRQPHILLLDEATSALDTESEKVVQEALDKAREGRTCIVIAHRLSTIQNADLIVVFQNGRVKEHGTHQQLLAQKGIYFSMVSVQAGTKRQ
# [3] = target: T1, ATP-dependent translocase ABCB1; test: Inhibition of ABCB1 in multidrug resistant human COLO320 cells assessed as fluorescence activity ratio at 2 uM incubated for 10 mins by flow cytometry based rhodamine-123 accumulation assay (reference value: 0.62)
# [4] = Cytotoxicity against multidrug resistant human COLO320 cells incubated for 24 hrs by MTT assay; type: functional, cell-based; conditions: COLO 320, 24 h
# [5] = target: T1, ATP-dependent translocase ABCB1; test: Inhibition of human ABCB1 expressed in mouse L5178Y cells assessed as potentiation of 2 mg/ml doxorubicin-induced cytotoxicty by measuring combination index at 4:1 compound to doxorubicin ratio incubated for 48 hrs by MTT assay; type: cell-based
# [6] = tested on: L5178Y; test: Antiproliferative activity against human ABCB1 expressing mouse L5178Y cells incubated for 72 hrs by MTT assay; type: functional, cell-based
# [7] = Antiproliferative activity against chemosensitive human COLO205 cells incubated for 72 hrs by MTT assay; type: functional, cell-based; conditions: COLO 205, 72 h
# [8] = tested on: L5178Y; test: Cytotoxicity against human ABCB1 expressing mouse L5178Y cells incubated for 24 hrs by MTT assay; type: functional, cell-based
# [9] = target: T1, ATP-dependent translocase ABCB1; test: Inhibition of ABCB1 in multidrug resistant human COLO320 cells assessed as fluorescence activity ratio at 20 uM incubated for 10 mins by flow cytometry based rhodamine-123 accumulation assay (reference value: 0.62)
# [10] = target: T1, ATP-dependent translocase ABCB1; test: Inhibition of ABCB1 in multidrug resistant human COLO320 cells assessed as fluorescence activity ratio at 0.2 uM incubated for 10 mins by flow cytometry based rhodamine-123 accumulation assay (reference value: 0.62)
# [11] = target: T1, ATP-dependent translocase ABCB1; test: Inhibition of human ABCB1 expressed in mouse L5178Y cells assessed as fluorescence activity ratio at 2 uM incubated for 10 mins by flow cytometry based rhodamine-123 accumulation assay (reference value: 0.78); type: cell-based
# [12] = tested on: L5178Y; test: Antiproliferative activity against chemosensitive wild type parental mouse L5178Y cells incubated for 72 hrs by MTT assay; type: functional, cell-based
# [13] = Antiproliferative activity against multidrug resistant human COLO320 cells incubated for 72 hrs by MTT assay; type: functional; conditions: COLO 320, 72 h
# [14] = target: T1, ATP-dependent translocase ABCB1; test: Inhibition of human ABCB1 expressed in mouse L5178Y cells assessed as fluorescence activity ratio at 20 uM incubated for 10 mins by flow cytometry based rhodamine-123 accumulation assay (reference value: 0.78); type: cell-based
# [15] = tested on: COLO 205; test: Cytotoxicity against chemosensitive human COLO205 cells incubated for 24 hrs by MTT assay; type: functional, cell-based; conditions: COLO 205, 24 h
# [16] = Selectivity index, ratio of cytotoxic IC50 for chemosensitive human COLO205 cells to cytotoxic IC50 for multidrug resistant human COLO320 cells; type: functional, COLO 205
# [17] = Selectivity index, ratio of antiproliferative IC50 for chemosensitive human COLO205 cells to antiproliferative IC50 for multidrug resistant human COLO320 cells; type: functional, COLO 205
# [18] = tested on: L5178Y; test: Selectivity index, ratio of antiproliferative IC50 for wild type parental mouse L5178Y cells to antiproliferative IC50 for human ABCB1 expressing mouse L5178Y cells; type: functional
# [19] = target: T1, ATP-dependent translocase ABCB1; test: Inhibition of human ABCB1 expressed in mouse L5178Y cells assessed as potentiation of 2 mg/ml doxorubicin-induced cytotoxicty by measuring combination index at 5:1 compound to doxorubicin ratio incubated for 48 hrs by MTT assay; type: cell-based
# [20] = tested on: L5178Y; test: Selectivity index, ratio of cytotoxic IC50 for wild type parental mouse L5178Y cells to cytotoxic IC50 for human ABCB1 expressing mouse L5178Y cells; type: functional
# [21] = target: T1, ATP-dependent translocase ABCB1; test: Activation of human ABCB1 expressed in Sf9 cell membrane vesicles assessed as inorganic phosphate release at 0.8 uM to 100 uM using MgATP by colorimetric ATPase assay
# [22] = target: T1, ATP-dependent translocase ABCB1; test: Inhibition of human ABCB1 expressed in mouse L5178Y cells assessed as potentiation of 2 mg/ml doxorubicin-induced cytotoxicty at 6:1 compound to doxorubicin ratio incubated for 48 hrs by MTT assay; type: cell-based
Ratio [2],Ratio [3],Ratio [9],Ratio [10],Ratio [11],Ratio [14],Structure (SMILES),pIC50 [1],pIC50 [4],pIC50 [6],pIC50 [7],pIC50 [8],pIC50 [12],pIC50 [13],pIC50 [15],Ratio IC50 [16],Ratio IC50 [17],Ratio IC50 [18],CI [19],Ratio IC50 [20],CI [22],further results
3.55,5.59,6.86,3,86.39,83.29,C/C1=C\[C@@H]2[C@H](CC[C@]3(CO3)[C@H](OC(=O)c3cccc(C)c3)[C@H]3[C@@H](OC(=O)c4cccc(C)c4)[C@@H](C)C[C@]3(O)C1=O)C2(C)C,4.58,4.62,4.54,4.81,< 4.30,4.38,4.80,< 4.30,>2.09,0.98,1.44,0.066,<0.53,,
10.45,9.1,15.4,3.13,60.62,63.13,COc1cccc(C(=O)O[C@@H]2[C@@H]3[C@@H](OC(=O)c4cccc(OC)c4)[C@]4(CC[C@H]5[C@@H](/C=C(\C)C(=O)[C@@]3(O)C[C@@H]2C)C5(C)C)CO4)c1,4.37,< 4.00,4.28,< 4.00,< 4.00,4.61,< 4.00,< 4.00,,,0.46,0.097,<0.42,,Activity [21]: Active
1.38,3.07,12.31,1.02,8.03,56.81,C/C1=C\[C@@H]2[C@H](CC[C@]3(CO3)[C@H](OC(=O)c3ccc(N(C)C)cc3)[C@H]3[C@@H](OC(=O)c4ccc(N(C)C)cc4)[C@@H](C)C[C@]3(O)C1=O)C2(C)C,4.47,4.44,4.34,4.76,4.32,4.54,4.67,4.65,0.62,0.8,0.63,0.172,0.7,,

# More lines, now with the values behind:
Structure (SMILES),Ratio [2],Ratio [3],Ratio [9],Ratio [10],Ratio [11],Ratio [14],pIC50 [1],pIC50 [4],pIC50 [6],pIC50 [7],pIC50 [8],pIC50 [12],pIC50 [13],pIC50 [15],Ratio IC50 [16],Ratio IC50 [17],Ratio IC50 [18],CI [19],Ratio IC50 [20],CI [22],further results
C/C1=C\[C@@H]2[C@H](CC[C@]3(CO3)[C@H](OC(=O)c3ccc4ccccc4c3)[C@H]3[C@@H](OC(=O)c4ccc5ccccc5c4)[C@@H](C)C[C@]3(O)C1=O)C2(C)C,13.67,5.83,5.06,2.54,58.84,66.52,< 4.00,< 4.00,< 4.00,< 4.00,< 4.00,< 4.00,< 4.00,< 4.00,,,,,,,CI [5]: 0.233
CO[C@H]1[C@@H]2[C@H](CC[C@]3(COC(C)=O)O[C@@H]3[C@H]3[C@@H](OC(C)=O)[C@@H](C)C[C@]3(O)C(=O)[C@@H]1C)C2(C)C,,1.1,2.25,,1.16,2.07,< 4.00,< 4.00,< 4.00,< 4.00,< 4.00,< 4.00,4.18,< 4.00,,>1.98,,,,0.214,
C/C1=C\[C@@H]2[C@H](CC[C@@](C)(O)[C@H](O)[C@H]3[C@@H](OC(=O)c4ccccc4)[C@@H](C)C[C@]3(O)[C@H]1O)C2(C)C,,1.37,4.29,,1.45,33.19,< 4.00,4.28,< 4.00,4.52,< 4.00,< 4.00,4.43,< 4.00,>1.9,0.84,,,,0.23,
